Source: US11149018B2, “Substituted N-arylethyl-2-aminoquinoline-4-carboxamides and use thereof” (Bayer Aktiengesellschaft, priority 2017, dated 2021)

Molecular target: FP receptor (Homo sapiens (Human), UniProt P43088)
Assay: In vitro test of inhibition of human FP receptor activity (PGF2α-induced calcium flux in FP-expressing CHEM1 cells)
Type: cell-based
Settings: PGF2α 2 nM, some mean values of multiple determinations
Procedure: B-1. In Vitro Test of Inhibition of Human FP Receptor Activity
For the characterization of test substances in respect of FP antagonism, PGF2α-induced calcium flux in FP-expressing CHEM1 cells (Millipore, HTS093C) was used.
10 μl of the prediluted substance solution are added to the Fluo-8-laden cells and incubated at 37° C., 5% CO2 for 10 minutes. The FP receptor is activated by adding 40 μl of 2 nM (final concentration) PGF2α in calcium-free Tyrode, 2 mM CaCl2, 0.002% SmartBlock, and the calcium flux is determined by measuring the fluorescence at ex. 470 nm/[…].
Table 1 below lists the IC50 values from this assay for individual working examples of the invention (some as mean values from multiple independent individual determinations): […]

Chain of FP receptor (P43088 whole entry): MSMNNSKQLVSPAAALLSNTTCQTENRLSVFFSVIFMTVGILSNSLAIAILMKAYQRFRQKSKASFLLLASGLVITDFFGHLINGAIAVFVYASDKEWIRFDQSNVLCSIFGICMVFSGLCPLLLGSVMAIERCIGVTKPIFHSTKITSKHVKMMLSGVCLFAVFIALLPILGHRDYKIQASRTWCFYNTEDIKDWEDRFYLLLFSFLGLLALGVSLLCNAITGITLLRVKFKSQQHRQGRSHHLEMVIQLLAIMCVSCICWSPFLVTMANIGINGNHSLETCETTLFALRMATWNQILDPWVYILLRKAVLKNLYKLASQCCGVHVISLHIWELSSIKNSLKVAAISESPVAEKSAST

IC50	SMILES
26 nM	Cc1c(N2CCCCC2)nc2ccc(Br)cc2c1C(=O)NCC(CC(=O)O)c1c(F)cccc1Cl (racemic) [Example 1, (+/−)-4-({[6-Bromo-3-methyl-2-(piperidin-1-yl)quinolin-4-yl]carbonyl}amino)-3-(2-chloro-6-fluorophenyl)butanoic acid]
170 nM	Cc1c(NCCc2ccccc2)nc2ccc(Br)cc2c1C(=O)NCC(CC(=O)O)c1c(F)cccc1Cl (racemic) [Example 4, (+/−)-4-[({6-Bromo-3-methyl-2-[(2-phenylethyl)amino]quinolin-4-yl}carbonyl)amino]-3-(2-chloro-6-fluorophenyl)butanoic acid]
9.4 nM	Cc1c(N2CCCCC2)nc2ccc(Br)cc2c1C(=O)NCC(CCC(=O)O)c1cc(F)ccc1Cl (racemic) [Example 5, (+/−)-5-({[6-Bromo-3-methyl-2-(piperidin-1-yl)quinolin-4-yl]carbonyl}amino)-4-(2-chloro-5-fluorophenyl)pentanoic acid]
58 nM	Cc1c(N2CCC(F)(F)CC2)nc2ccc(Br)cc2c1C(=O)NCC(CCC(=O)O)c1cc(F)ccc1Cl (racemic) [Example 8, (+/−)-5-({[6-Bromo-2-(4,4-difluoropiperidin-1-yl)-3-methylquinolin-4-yl]carbonyl}amino)-4-(2-chloro-5-fluorophenyl)pentanoic acid]
290 nM	Cc1c(N2CCOCC2)nc2ccc(Br)cc2c1C(=O)NCC(CCC(=O)O)c1cc(F)ccc1Cl (racemic) [Example 9, (+/−)-5-({[6-Bromo-3-methyl-2-(morpholin-4-yl)quinolin-4-yl]carbonyl}amino)-4-(2-chloro-5-fluorophenyl)pentanoic acid]
36 nM	Cc1c(N2CC=CCC2)nc2ccc(Br)cc2c1C(=O)NCC(CCC(=O)O)c1cc(F)ccc1Cl (racemic) [Example 10, (+/−)-5-({[6-Bromo-2-(3,6-dihydropyridin-1(2H)-yl)-3-methylquinolin-4-yl]carbonyl}amino)-4-(2-chloro-5-fluorophenyl)pentanoic acid]
25 nM	Cc1c(N2CCSCC2)nc2ccc(Br)cc2c1C(=O)NCC(CCC(=O)O)c1cc(F)ccc1Cl (racemic) [Example 11, (+/−)-5-({[6-Bromo-3-methyl-2-(thiomorpholin-4-yl)quinolin-4-yl]carbonyl}amino)-4-(2-chloro-5-fluorophenyl)pentanoic acid]
220 nM	Cc1c(N2C[C@@H](C)O[C@@H](C)C2)nc2ccc(Br)cc2c1C(=O)NCC(CCC(=O)O)c1cc(F)ccc1Cl (mixture of isomers) [Example 12, (+/−)-5-[({6-Bromo-2-[cis-2,6-dimethylmorpholin-4-yl]-3-methylquinolin-4-yl}carbonyl)amino]-4-(2-chloro-5-fluorophenyl)pentanoic acid]
18 nM	Cc1c(N2CCCC2)nc2ccc(Br)cc2c1C(=O)NCC(CCC(=O)O)c1cc(F)ccc1Cl (racemic) [Example 13, (+/−)-5-({[6-Bromo-3-methyl-2-(pyrrolidin-1-yl)quinolin-4-yl]carbonyl}amino)-4-(2-chloro-5-fluorophenyl)pentanoic acid]
70 nM	Cc1c(N2CCCO2)nc2ccc(Br)cc2c1C(=O)NCC(CCC(=O)O)c1cc(F)ccc1Cl (racemic) [Example 14, (+/−)-5-({[6-Bromo-3-methyl-2-(1,2-oxazolidin-2-yl)quinolin-4-yl]carbonyl}amino)-4-(2-chloro-5-fluorophenyl)pentanoic acid]
48 nM	Cc1c(N2CC=CC2)nc2ccc(Br)cc2c1C(=O)NCC(CCC(=O)O)c1cc(F)ccc1Cl (racemic) [Example 15, (+/−)-5-({[6-Bromo-2-(2,5-dihydro-1H-pyrrol-1-yl)-3-methylquinolin-4-yl]carbonyl}amino)-4-(2-chloro-5-fluorophenyl)pentanoic acid]
80 nM	Cc1c(N2CCC(C)CC2)nc2ccc(Br)cc2c1C(=O)NCC(CCC(=O)O)c1cc(F)ccc1Cl (racemic) [Example 18, (+/−)-5-({[6-Bromo-3-methyl-2-(4-methylpiperidin-1-yl)quinolin-4-yl]carbonyl}amino)-4-(2-chloro-5-fluorophenyl)pentanoic acid]
22 nM	Cc1c(N2CCSCC2)nc2ccc(Br)cc2c1C(=O)NCC(CCC(=O)O)c1ccccc1Cl (racemic) [Example 25, (+/−)-5-({[6-Bromo-3-methyl-2-(thiomorpholin-4-yl)quinolin-4-yl]carbonyl}amino)-4-(2-chlorophenyl)pentanoic acid]
31 nM	Cc1c(N2CCC(F)(F)CC2)nc2ccc(Br)cc2c1C(=O)NCC(CCC(=O)O)c1ccccc1Cl (racemic) [Example 28, (+/−)-5-({[6-Bromo-2-(4,4-difluoropiperidin-1-yl)-3-methylquinolin-4-yl]carbonyl}amino)-4-(2-chlorophenyl)pentanoic acid]
22 nM	Cc1c(N2CC=CCC2)nc2ccc(Br)cc2c1C(=O)NCC(CCC(=O)O)c1ccccc1Cl (racemic) [Example 29, (+/−)-5-({[6-Bromo-2-(3,6-dihydropyridin-1(2H)-yl)-3-methylquinolin-4-yl]carbonyl}amino)-4-(2-chlorophenyl)pentanoic acid]
48 nM	Cc1c(N2CCCCO2)nc2ccc(Br)cc2c1C(=O)NCC(CCC(=O)O)c1ccccc1Cl (racemic) [Example 32, (+/−)-5-({[6-Bromo-3-methyl-2-(1,2-oxazinan-2-yl)quinolin-4-yl]carbonyl}amino)-4-(2-chlorophenyl)pentanoic acid]
22 nM	Cc1c(N2CCC(F)(F)C2)nc2ccc(Br)cc2c1C(=O)NCC(CCC(=O)O)c1ccccc1Cl (racemic) [Example 37, (+/−)-5-({[6-Bromo-2-(3,3-difluoropyrrolidin-1-yl)-3-methylquinolin-4-yl]carbonyl}amino)-4-(2-chlorophenyl)pentanoic acid]
110 nM	Cc1c(N2CCCO2)nc2ccc(Br)cc2c1C(=O)NCC(CCC(=O)O)c1ccccc1Cl (racemic) [Example 38, (+/−)-5-({[6-Bromo-3-methyl-2-(1,2-oxazolidin-2-yl)quinolin-4-yl]carbonyl}amino)-4-(2-chlorophenyl)pentanoic acid]
130 nM	Cc1c(N2CCCC(C)(C)C2)nc2ccc(Br)cc2c1C(=O)NCC(CCC(=O)O)c1ccccc1Cl (racemic) [Example 42, (+/−)-5-({[6-Bromo-2-(3,3-dimethylpiperidin-1-yl)-3-methylquinolin-4-yl]carbonyl}amino)-4-(2-chlorophenyl)pentanoic acid]
3 nM	Cc1c(N2CCCC(F)(F)C2)nc2ccc(Br)cc2c1C(=O)NCC(CCC(=O)O)c1ccccc1Cl (racemic) [Example 50, (+/−)-5-({[6-Bromo-2-(3,3-difluoropiperidin-1-yl)-3-methylquinolin-4-yl]carbonyl}amino)-4-(2-chlorophenyl)pentanoic acid]
850 nM	Cc1c(N2CCN(C)CC2)nc2ccc(Br)cc2c1C(=O)NCC(CCC(=O)O)c1ccccc1Cl (racemic) [Example 54, (+/−)-5-({[6-Bromo-3-methyl-2-(4-methylpiperazin-1-yl)quinolin-4-yl]carbonyl}amino)-4-(2-chlorophenyl)pentanoic acid]

SMILES	IC50
CCC1CCCN(c2nc3ccc(Br)cc3c(C(=O)NCC(CCC(=O)O)c3ccccc3Cl)c2C)C1 (racemic) [Example 57, (+/−)-5-[({6-Bromo-2-[3-ethylpiperidin-1-yl]-3-methylquinolin-4-yl}carbonyl)amino]-4-(2-chlorophenyl)pentanoic acid]	0.84 nM
